Source: ChEMBL document CHEMBL1201862, “PubChem BioAssay data set” (2004)
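Method: 48-hour compound exposure of cells in 96-well plates, five concentrations, linear interpolation of endpoints. Abbreviation: GI50, concentration required for 50% inhibition of growth.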 The source made the active and inactive calls. No stated cut-off is given here; in the data, active = GI50 up to about 1.1 µM and inactive = higher.

Columns and labels:
Test in all cases: NCI anticancer screen, dose series, 48 h
HCT-116 = system: HCT-116
UACC-257 = system: UACC-257
HCT-15 = system: HCT-15
U-251 = system: U-251
SF-268 = system: SF-268
A549 = system: A549
786-0 = system: 786-0
SN12C = system: SN12C
SK-MEL-28 = system: SK-MEL-28
NCI-H460 = system: NCI-H460
SF-295 = system: SF-295
HOP-92 = system: HOP-92
SNB-75 = system: SNB-75
OVCAR-4 = system: OVCAR-4
K562 = system: K562
SR = system: SR
OVCAR-5 = system: OVCAR-5
NCI-H226 = system: NCI-H226
SF-539 = system: SF-539

Row | Structure (SMILES) | GI50 (HCT-116) | GI50 (UACC-257) | GI50 (HCT-15) | GI50 (U-251) | GI50 (SF-268) | GI50 (A549) | GI50 (786-0) | GI50 (SN12C) | GI50 (SK-MEL-28) | GI50 (NCI-H460) | GI50 (SF-295) | GI50 (HOP-92) | GI50 (SNB-75) | GI50 (OVCAR-4) | GI50 (K562) | GI50 (SR) | GI50 (OVCAR-5) | GI50 (NCI-H226) | GI50 (SF-539)
1 | CSc1nc2nc(C)c(C)nc2c(=O)[nH]1 | > 100 µM (inactive) | > 100 µM (inactive) | > 100 µM | > 100 µM (inactive) | > 100 µM (inactive) | > 100 µM (inactive) | > 100 µM (inactive) | > 100 µM (inactive) | > 100 µM (inactive) | > 100 µM (inactive) | > 100 µM (inactive) | > 100 µM (inactive) | > 100 µM (inactive) | > 100 µM (inactive) | > 100 µM (inactive) | > 100 µM (inactive) | > 100 µM (inactive) | – | –
2 | O=c1c2ccccc2nc(-c2ccc(Br)cc2)n1NC1OC(CO)C(O)C(O)C1O (configuration not stated) | > 100 µM (inactive) | > 100 µM (inactive) | > 100 µM | > 100 µM (inactive) | 69.5 µM (inactive) | > 100 µM (inactive) | > 100 µM (inactive) | > 100 µM (inactive) | > 100 µM (inactive) | > 100 µM (inactive) | > 100 µM (inactive) | > 100 µM (inactive) | 80.5 µM (inactive) | 42 µM (inactive) | 43.6 µM (inactive) | – | > 100 µM (inactive) | > 100 µM (inactive) | > 100 µM (inactive)
3 | CCC1=CCN(c2ccc(C)cc2)OC1c1ccc(OC)cc1 (configuration not stated) | 59.6 µM (inactive) | 37 µM (inactive) | 47 µM | 73.3 µM (inactive) | > 100 µM (inactive) | 71.8 µM (inactive) | > 100 µM (inactive) | > 100 µM (inactive) | 50.2 µM (inactive) | > 100 µM (inactive) | 92.7 µM (inactive) | – | > 100 µM (inactive) | 92.7 µM (inactive) | 94.8 µM (inactive) | 47.4 µM (inactive) | > 100 µM (inactive) | > 100 µM (inactive) | > 100 µM (inactive)
4 | c1ccc2c(c1)nnn2CNc1ccc(N2CCOCC2)cc1 | > 100 µM (inactive) | > 100 µM (inactive) | > 100 µM | > 100 µM (inactive) | > 100 µM (inactive) | > 100 µM (inactive) | > 100 µM (inactive) | > 100 µM (inactive) | > 100 µM (inactive) | > 100 µM (inactive) | > 100 µM (inactive) | > 100 µM (inactive) | > 100 µM (inactive) | > 100 µM (inactive) | > 100 µM (inactive) | 43.3 µM (inactive) | – | > 100 µM (inactive) | > 100 µM (inactive)
5 | CCCCc1c2cnccc2c(CCCC)c2c1[nH]c1ccccc12 | 3.59 µM (inactive) | 15.1 µM (inactive) | 6.84 µM | 12.8 µM (inactive) | 14.9 µM (inactive) | 12.1 µM (inactive) | 10 µM (inactive) | 18 µM (inactive) | 6.34 µM (inactive) | 15.7 µM (inactive) | 7.19 µM (inactive) | 12.8 µM (inactive) | 5.87 µM (inactive) | 8.99 µM (inactive) | 3.54 µM (inactive) | – | 44.9 µM (inactive) | 15.7 µM (inactive) | 3.42 µM (inactive)
6 | O=CNCNCCO | > 100 µM (inactive) | – | > 100 µM | > 100 µM (inactive) | > 100 µM (inactive) | > 100 µM (inactive) | > 100 µM (inactive) | – | > 100 µM (inactive) | > 100 µM (inactive) | – | > 100 µM (inactive) | > 100 µM (inactive) | > 100 µM (inactive) | > 100 µM (inactive) | > 100 µM (inactive) | > 100 µM (inactive) | > 100 µM (inactive) | –
7 | C#CCN1C(=O)CN2C(Cl)(Cl)C2(c2ccccc2)c2cc(Cl)ccc21 (configuration not stated) | 42.2 µM (inactive) | 36.3 µM (inactive) | 40.6 µM | > 10 µM (inactive) | 82 µM (inactive) | – | – | 37.2 µM (inactive) | > 100 µM (inactive) | 54.8 µM (inactive) | 65.8 µM (inactive) | 61.8 µM (inactive) | > 10 µM (inactive) | 72.1 µM (inactive) | 49.8 µM (inactive) | 40.3 µM (inactive) | > 100 µM (inactive) | 39.7 µM (inactive) | –
8 | CC(C)(C)c1ccc(C(O)c2ccc(C(C)(C)C)cc2)cc1 | 12.1 µM (inactive) | 18.8 µM (inactive) | 12.1 µM | 13.1 µM (inactive) | 20 µM (inactive) | 14.2 µM (inactive) | 15.5 µM (inactive) | 13.1 µM (inactive) | 16.8 µM (inactive) | 12.8 µM (inactive) | 14 µM (inactive) | 12.6 µM (inactive) | 19.2 µM (inactive) | 15.2 µM (inactive) | 14.7 µM (inactive) | 23.9 µM (inactive) | 16.6 µM (inactive) | 4.72 µM (inactive) | 17.3 µM (inactive)
9 | CCOc1ccc(NC(=O)C(=O)CC(=O)c2c(C)[n+]([O-])c3ccccc3[n+]2[O-])cc1 | > 100 µM (inactive) | > 100 µM (inactive) | > 100 µM | > 100 µM (inactive) | > 100 µM (inactive) | > 100 µM (inactive) | > 100 µM (inactive) | > 100 µM (inactive) | > 100 µM (inactive) | > 100 µM (inactive) | > 100 µM (inactive) | > 100 µM (inactive) | > 100 µM (inactive) | > 100 µM (inactive) | > 100 µM (inactive) | 64.9 µM (inactive) | > 100 µM (inactive) | > 100 µM (inactive) | > 100 µM (inactive)
10 | COc1cc(C2C(C(=O)NCc3ccccc3)=C(C)NC(C)=C2C(=O)NCc2ccccc2)ccc1O | 44.7 µM (inactive) | 44.1 µM (inactive) | 27.6 µM | 28.6 µM (inactive) | 34.9 µM (inactive) | 77.4 µM (inactive) | 46.2 µM (inactive) | 31.5 µM (inactive) | 34.5 µM (inactive) | 24.3 µM (inactive) | 46 µM (inactive) | 31.4 µM (inactive) | 44.9 µM (inactive) | 40.1 µM (inactive) | 30.8 µM (inactive) | 20.2 µM (inactive) | 57.5 µM (inactive) | 37.9 µM (inactive) | 20.9 µM (inactive)
11 | CCCCCCCC(=O)OCC1OC(n2cc(F)c(=O)[nH]c2=O)C(NC(=O)OCc2ccccc2)C(OC(=O)CCCCCCC)C1O (configuration not stated) | 30.1 µM (inactive) | 39.7 µM (inactive) | 26.5 µM | 22.9 µM (inactive) | 29 µM (inactive) | 25.1 µM (inactive) | 23.5 µM (inactive) | 14.1 µM (inactive) | 36.5 µM (inactive) | 35.5 µM (inactive) | 57 µM (inactive) | 23.2 µM (inactive) | 24.5 µM (inactive) | 10.5 µM (inactive) | 15.6 µM (inactive) | 16.7 µM (inactive) | – | – | 26.3 µM (inactive)
12 | COc1ccc(N(C)C(=O)N(C)c2ccc([N+](=O)[O-])cc2)cc1 | 27.4 µM (inactive) | 26.1 µM (inactive) | 30.1 µM | 30.4 µM (inactive) | 82 µM (inactive) | 58.1 µM (inactive) | 58.9 µM (inactive) | 61.4 µM (inactive) | 50.2 µM (inactive) | 25.8 µM (inactive) | – | 25.5 µM (inactive) | 29.6 µM (inactive) | 11.2 µM (inactive) | 18.4 µM (inactive) | 19.5 µM (inactive) | 39.9 µM (inactive) | 23 µM (inactive) | 29.6 µM (inactive)
13 | O=C1NC2(CCCCC2)C2CCCCC(O)C12 (configuration not stated) | > 100 µM (inactive) | > 100 µM (inactive) | > 100 µM | > 100 µM (inactive) | > 100 µM (inactive) | > 100 µM (inactive) | > 100 µM (inactive) | > 100 µM (inactive) | > 100 µM (inactive) | > 100 µM (inactive) | > 100 µM (inactive) | – | 57.1 µM (inactive) | – | > 100 µM (inactive) | > 100 µM (inactive) | > 100 µM (inactive) | > 100 µM (inactive) | > 100 µM (inactive)
14 | COC(=O)c1cc2c(s1)C(=O)c1ccccc1-2 | > 100 µM (inactive) | > 100 µM (inactive) | > 100 µM | > 100 µM (inactive) | > 100 µM (inactive) | > 100 µM (inactive) | > 100 µM (inactive) | > 100 µM (inactive) | > 100 µM (inactive) | > 100 µM (inactive) | > 100 µM (inactive) | > 100 µM (inactive) | > 100 µM (inactive) | > 100 µM (inactive) | > 100 µM (inactive) | – | > 100 µM (inactive) | > 100 µM (inactive) | > 100 µM (inactive)
15 | CC(C)C(=O)/C=C/c1ccc(Br)cc1 | 6.14 µM (inactive) | 16.5 µM (inactive) | – | 10.9 µM (inactive) | 23 µM (inactive) | 23.8 µM (inactive) | 11.2 µM (inactive) | 14.1 µM (inactive) | 20.1 µM (inactive) | 14.9 µM (inactive) | 15.5 µM (inactive) | 16.4 µM (inactive) | 18.1 µM (inactive) | 25.4 µM (inactive) | 3.94 µM (inactive) | 7.28 µM (inactive) | 14.4 µM (inactive) | – | 21.1 µM (inactive)
16 | CCC1=C(C(C)=O)[C@@H]2CCCCC(C(=O)OC)[C@@H]2C1=O (some centres not stated) | > 100 µM (inactive) | > 100 µM (inactive) | > 100 µM | > 100 µM (inactive) | > 100 µM (inactive) | > 100 µM (inactive) | > 100 µM (inactive) | > 100 µM (inactive) | > 100 µM (inactive) | > 100 µM (inactive) | > 100 µM (inactive) | > 100 µM (inactive) | > 100 µM (inactive) | > 100 µM (inactive) | > 100 µM (inactive) | – | > 100 µM (inactive) | > 100 µM (inactive) | > 100 µM (inactive)
